# In US20060062758A1, “Tight junction modulator peptide PN159 for enhanced mucosal delivery of therapeutic compounds” (Nastech Pharmaceutical Comapny Inc., priority 2004, published 2006):
# Tests used:
# [1] = system: EpiAirway™ Cell Membrane (mucosal epithelial cell layer); assay: Transepithelial electrical resistance (TER), EpiAirway in vitro epithelial tissue model; format: cell-based; conditions: for TER(x)/TER(159) +/− SEM*: mean values from multiple repeats
# Description: One “kit” consists of 24 units.
# A. Respiratory airway epithelial cells form tight junctions in vivo as well as in vitro, and thereby restrict the flow of solutes across the tissue. These junctions confer a transepithelial resistance of several hundred ohms×cm^2 in excised airway tissues. In the MatTek EpiAirway™ units, the transepithelial electrical resistance (TER) is reported by the manufacturer to be routinely around 1000 ohms×cm^2. […] The porous membrane-bottomed units without cells, conversely, provide only minimal transmembrane resistance (approximately 5-20 ohms×cm^2).
# B. Accurate determinations of TER require that the electrodes of the ohmmeter be positioned over a significant surface area above and below the membrane, and that the distance of the electrodes from the membrane be reproducibly controlled. The method for TER determination recommended by MatTek and employed for all experiments herein employs an “EVOM”™ epithelial voltohmmeter and an “ENDOHM”™ tissue resistance measurement chamber from World Precision Instruments, Inc., Sarasota, Fla.
# D. Determinations of TER are made with 1.5 mL of PBS in the chamber and 350 μL of PBS in the membrane-bottomed unit being measured. The top electrode is adjusted to a position just above the membrane of a unit containing no cells (but containing 350 μL of PBS) and then fixed to ensure reproducible positioning. The resistance of a cell-free unit is typically 5-20 ohms×cm^2 (“background resistance”).
# G. The unit is gently blotted free of excess PBS on its exterior surface only before being placed into the chamber (containing a fresh 1.5 mL aliquot of PBS). An aliquot of 350 μL PBS is added to the unit before the top electrode is placed on the chamber and the TER is read on the EVOM meter.
# I. The units are read in the following sequence: all sham-treated controls, followed by all formulation-treated samples, followed by a second TER reading of each of the sham-treated controls. All TER values are reported as a function of the surface area of the tissue.
# TER was calculated as: TER=(R1−Rb)×A Where R1 is resistance of the insert with a membrane, Rb is the resistance of the blank insert, and A is the area of the membrane (0.6 cm^2). The effect of pharmaceutical formulations comprising intranasal delivery-enhancing agents, for example, permeabilizing peptides as measured by TER across the EpiAirway™ Cell Membrane (mucosal epithelial cell layer). Permeabilizing peptides are applied to the EpiAirway™ Cell Membrane at a concentration of 1.0 mM. A decrease in TER value relative to the control value (control=approximately 1000 ohms-cm^2; normalized to 100.) indicates a decrease in cell membrane resistance and an increase in mucosal epithelial cell permeability.
# The formulation pH was fixed at 4.5.
# [2] = system: EpiAirway™ Cell Membrane (mucosal epithelial cell layer); assay: as above; format: cell-based
# [3] = Chemical stability of PN159 in solution (stability indicating HPLC); format: physicochemical; conditions: pH 9 and/or elevated temperature, e.g., 40 to 50° C.
# Procedure: The chemical stability of the PN159 was determined under therapeutically relevant storage conditions. A stability indicating HPLC method was employed. Solutions (50 mM) were stored at various pH (4.0, 7.3, and 9.0) and temperature (5° C., 25° C., 35° C., 40° C., and 50° C.) conditions. Samples at pH 4 contained 10 mM citrate buffer. Samples at pH 7.3 and 9.0 contained 10 mM phosphate buffer. Representative storage stability data (including the Arrhenius plot) are depicted in FIG. 6. […] For example, at 5° C. and pH 4.0 or pH7.3, there was essentially 100% recovery of PN159 for six month storage. […] The pH range of 4.0 to 7.3 and the temperature range of refrigerated to ambient are most relevant for intranasal formulations.
smiles,measurement,setting,value
CC(C)C[C@H](NC(=O)[C@H](C)NC(=O)[C@H](CCCCN)NC(=O)[C@H](CC(C)C)NC(=O)[C@H](C)NC(=O)[C@H](CC(C)C)NC(=O)[C@H](CCCCN)NC(=O)[C@H](CC(C)C)NC(=O)[C@H](C)NC(=O)[C@H](CC(C)C)NC(=O)[C@@H](N)CCCCN)C(=O)N[C@@H](CCCCN)C(=O)N[C@@H](C)C(=O)N[C@@H](C)C(=O)N[C@@H](CC(C)C)C(=O)N[C@@H](CCCCN)C(=O)N[C@@H](CC(C)C)C(=O)N[C@@H](C)C(N)=O [PN159],TER reduction (in words),"[1]; Example 2, PTH formulation study, applied to apical side",Higher TER reduction was observed with increasing PN159 concentration
same,TER(x)/TER(159) +/− SEM*,"[1]; Example 7, length changes, relative to PN159",1.00 +/− 0.14
same,TER(x)/TER(159) +/− SEM,"[1]; Table 6, D-amino acid substitutions, relative to PN159",1.00 +/− 0.14
same,Relative TER Decrease,"[1]; Table 8, amino acid substitutions, relative to PN159",1.0
same,TER(x)/TER(159) +/− SEM*,"[1]; Table 9, hydrophobic faces, relative to PN159",1.00 +/− 0.14
same,TER (in words),"[2]; PN159 25, 50, 100 μM in the presence of 40 mg/ml galantamine lactate, pH 5.0",reduced TER
same,TER reduction,"[2]; PN159 25, 50, 100 μM with 2 mg/ml PTH, pH 4.5",more than 80%
same,chemical stability (in words),[3],rapid deterioration
